{"source": "patent US20260256792A1", "about": "“TREATMENT OF CHRONIC SPONTANEOUS URTICARIA BY ADMINISTERING (R)-2-[3-[4-AMINO-3-(2-FLUORO-4-PHENOXY-PHENYL)PYRAZOLO[3,4-D]PYRIMIDIN-1-YL]PIPERIDINE-1-CARBONYL]-4-METHYL-4-[4-(OXETAN-3-YL)PIPERAZIN-1-YL]PENT-2-ENENITRILE” (priority 2023, published 2026)", "system": "moderate-to-severe chronic spontaneous urticaria (CSU)", "assay": "Phase 2 CSU study: urticaria activity score over 7 days (UAS7)", "type": "in vivo, human", "conditions": "for RRD (%) for rilzabrutinib vs. placebo, UAS7 = 0 / RRD (%) for rilzabrutinib vs. placebo, UAS7 ≤6 / Responder n (%), UAS7 = 0 / Responder n (%), UAS7 ≤6 / Imputed non-responder n (%), UAS7 = 0 / Imputed non-responder n (%), UAS7 ≤6 / Non-responder n (%), UAS7 = 0 / Non-responder n (%), UAS7 ≤6 / OR for rilzabrutinib vs. placebo, UAS7 = 0 / OR for rilzabrutinib vs. placebo, UAS7 ≤6: ITT, 400 mg TID; for UAS7 Post-baseline Mean (SD): Omalizumab-Naïve Population with Outlier Removed", "text": "The study comprises a 12 week, randomized, double-blind, placebo-controlled, multi-center, dose-ranging efficacy and safety phase, followed by a 40 week open label extension (OLE) phase (see FIG. 1). The study consists of three phases and an optional OLE phase. […] Clinically, CSU is characterized by the spontaneous and recurrent appearance of pruritic hives. The proposed primary endpoints were the UAS7 at Week 12 in EU and EU reference countries and the ISS7 in the US. Regardless of where a participant was from, all assessments were the same. The UAS7 score is a composite score containing both the HSS7 and the ISS7. This allowed a global assessment of the two key components of urticaria: hives and itch. […] The UAS is a validated PRO measure. […] The daily UAS scores range from 0 to 6 point/day. […] Patients were to complete the UAS using the e-diary. […] The following secondary endpoints were to be analyzed using the same approach as for the primary endpoint: • Change from baseline in UAS7 at Week 4 • Change from baseline in UAS7 at Week 12 (for US and US reference countries) • Change from baseline in ISS7 at Week 12 (except US and US reference countries) • Change from baseline in HSS7 at Week 12 The following responder secondary endpoints were to be analyzed using the Cochran-Mantel-Haenszel test adjusted by region: • Proportion of participants with UAS7<6 at Week 12 • Proportion of participants with UAS7=0 at Week 12 Participants who received selected prohibited medications and/or rescue medications were to be considered as non-responders for time points after the medication usage. For other participants, all available data including those collected during the off-treatment period were to be used to determine the responder/non-responder status. Missing data were to be considered as non-responders.", "data": [{"smiles": "CC(C)(C=C(C#N)C(=O)N1CCC[C@@H](n2nc(-c3ccc(Oc4ccccc4)cc3F)c3c(N)ncnc32)C1)N1CCN(C2COC2)CC1", "note": "[rilzabrutinib, (R)-2-[3-[4-amino-3-(2-fluoro-4-phenoxy-phenyl)pyrazolo[3,4-d]pyrimidin-1-yl]piperidine-1-carbonyl]-4-methyl-4-[4-(oxetan-3-yl)piperazin-1-yl]pent-2-enenitrile]", "values": [{"measurement": "RRD (%) for rilzabrutinib vs. placebo, UAS7 = 0", "setting": "Week 7", "value": 6.9, "unit": "%"}, {"measurement": "RRD (%) for rilzabrutinib vs. placebo, UAS7 ≤6", "setting": "Week 7", "value": 16.1, "unit": "%"}, {"measurement": "Responder n (%), UAS7 = 0", "setting": "Week 7", "value": "4 (9.8) n (%)"}, {"measurement": "Responder n (%), UAS7 ≤6", "setting": "Week 7", "value": "11 (26.8) n (%)"}, {"measurement": "Imputed non-responder n (%), UAS7 = 0", "setting": "Week 8", "value": "8 (19.5) n (%)"}, {"measurement": "Imputed non-responder n (%), UAS7 ≤6", "setting": "Week 8", "value": "8 (19.5) n (%)"}, {"measurement": "Non-responder n (%), UAS7 = 0", "setting": "Week 8", "value": "37 (90.2) n (%)"}, {"measurement": "Non-responder n (%), UAS7 ≤6", "setting": "Week 8", "value": "28 (68.3) n (%)"}, {"measurement": "OR for rilzabrutinib vs. placebo, UAS7 = 0", "setting": "Week 8", "value": 1.697}, {"measurement": "OR for rilzabrutinib vs. placebo, UAS7 ≤6", "setting": "Week 8", "value": 2.257}, {"measurement": "RRD (%) for rilzabrutinib vs. placebo, UAS7 = 0", "setting": "Week 8", "value": 3.2, "unit": "%"}, {"measurement": "RRD (%) for rilzabrutinib vs. placebo, UAS7 ≤6", "setting": "Week 8", "value": 12.7, "unit": "%"}, {"measurement": "Responder n (%), UAS7 = 0", "setting": "Week 8", "value": "4 (9.8) n (%)"}, {"measurement": "Responder n (%), UAS7 ≤6", "setting": "Week 8", "value": "13 (31.7) n (%)"}, {"measurement": "Imputed non-responder n (%), UAS7 = 0", "setting": "Week 9", "value": "7 (17.1) n (%)"}, {"measurement": "Imputed non-responder n (%), UAS7 ≤6", "setting": "Week 9", "value": "7 (17.1) n (%)"}, {"measurement": "Non-responder n (%), UAS7 = 0", "setting": "Week 9", "value": "37 (90.2) n (%)"}, {"measurement": "Non-responder n (%), UAS7 ≤6", "setting": "Week 9", "value": "26 (63.4) n (%)"}, {"measurement": "OR for rilzabrutinib vs. placebo, UAS7 = 0", "setting": "Week 9", "value": 1.117}, {"measurement": "OR for rilzabrutinib vs. placebo, UAS7 ≤6", "setting": "Week 9", "value": 4.680}, {"measurement": "RRD (%) for rilzabrutinib vs. placebo, UAS7 = 0", "setting": "Week 9", "value": 0.8, "unit": "%"}, {"measurement": "RRD (%) for rilzabrutinib vs. placebo, UAS7 ≤6", "setting": "Week 9", "value": 22.0, "unit": "%"}, {"measurement": "Responder n (%), UAS7 = 0", "setting": "Week 9", "value": "4 (9.8) n (%)"}, {"measurement": "Responder n (%), UAS7 ≤6", "setting": "Week 9", "value": "15 (36.6) n (%)"}, {"measurement": "Imputed non-responder n (%), UAS7 = 0", "setting": "Week 10", "value": "7 (17.1) n (%)"}, {"measurement": "Imputed non-responder n (%), UAS7 ≤6", "setting": "Week 10", "value": "7 (17.1) n (%)"}, {"measurement": "Non-responder n (%), UAS7 = 0", "setting": "Week 10", "value": "35 (85.4) n (%)"}, {"measurement": "Non-responder n (%), UAS7 ≤6", "setting": "Week 10", "value": "27 (65.9) n (%)"}, {"measurement": "OR for rilzabrutinib vs. placebo, UAS7 = 0", "setting": "Week 10", "value": 1.210}, {"measurement": "OR for rilzabrutinib vs. placebo, UAS7 ≤6", "setting": "Week 10", "value": 2.074}, {"measurement": "RRD (%) for rilzabrutinib vs. placebo, UAS7 ≤6", "setting": "Week 10", "value": 12.9, "unit": "%"}, {"measurement": "Responder n (%), UAS7 = 0", "setting": "Week 10", "value": "6 (14.6) n (%)"}, {"measurement": "Responder n (%), UAS7 ≤6", "setting": "Week 10", "value": "14 (34.1) n (%)"}, {"measurement": "Imputed non-responder n (%), UAS7 = 0", "setting": "Week 11", "value": "6 (14.6) n (%)"}, {"measurement": "Imputed non-responder n (%), UAS7 ≤6", "setting": "Week 11", "value": "6 (14.6) n (%)"}, {"measurement": "Non-responder n (%), UAS7 = 0", "setting": "Week 11", "value": "34 (82.9) n (%)"}, {"measurement": "Non-responder n (%), UAS7 ≤6", "setting": "Week 11", "value": "26 (63.4) n (%)"}, {"measurement": "OR for rilzabrutinib vs. placebo, UAS7 = 0", "setting": "Week 11", "value": 3.449}, {"measurement": "OR for rilzabrutinib vs. placebo, UAS7 ≤6", "setting": "Week 11", "value": 2.322}, {"measurement": "RRD (%) for rilzabrutinib vs. placebo, UAS7 = 0", "setting": "Week 11", "value": 10.4, "unit": "%"}, {"measurement": "RRD (%) for rilzabrutinib vs. placebo, UAS7 ≤6", "setting": "Week 11", "value": 15.0, "unit": "%"}, {"measurement": "Responder n (%), UAS7 = 0", "setting": "Week 11", "value": "7 (17.1) n (%)"}, {"measurement": "Responder n (%), UAS7 ≤6", "setting": "Week 11", "value": "15 (36.6) n (%)"}, {"measurement": "Imputed non-responder n (%), UAS7 = 0", "setting": "Week 12", "value": "11 (26.8) n (%)"}, {"measurement": "Imputed non-responder n (%), UAS7 ≤6", "setting": "Week 12", "value": "11 (26.8) n (%)"}, {"measurement": "Non-responder n (%), UAS7 = 0", "setting": "Week 12", "value": "31 (75.6) n (%)"}, {"measurement": "Non-responder n (%), UAS7 ≤6", "setting": "Week 12", "value": "26 (63.4) n (%)"}, {"measurement": "OR for rilzabrutinib vs. placebo, UAS7 = 0", "setting": "Week 12", "value": 1.995}, {"measurement": "OR for rilzabrutinib vs. placebo, UAS7 ≤6", "setting": "Week 12", "value": 3.721}, {"measurement": "RRD (%) for rilzabrutinib vs. placebo, UAS7 = 0", "setting": "Week 12", "value": 9.4, "unit": "%"}, {"measurement": "RRD (%) for rilzabrutinib vs. placebo, UAS7 ≤6", "setting": "Week 12", "value": 20.9, "unit": "%"}, {"measurement": "Responder n (%), UAS7 = 0", "setting": "Week 12", "value": "10 (24.4) n (%)"}, {"measurement": "Responder n (%), UAS7 ≤6", "setting": "Week 12", "value": "15 (36.6) n (%)"}, {"measurement": "UAS7 Post-baseline Mean (SD)", "setting": "400 mg BID, Week 1", "value": "19.77 (11.32)"}, {"measurement": "UAS7 Post-baseline Mean (SD)", "setting": "400 mg BID, Week 2", "value": "19.59 (10.86)"}, {"measurement": "UAS7 Post-baseline Mean (SD)", "setting": "400 mg BID, Week 3", "value": "17.71 (11.91)"}, {"measurement": "UAS7 Post-baseline Mean (SD)", "setting": "400 mg BID, Week 4", "value": "15.92 (11.71)"}, {"measurement": "UAS7 Post-baseline Mean (SD)", "setting": "400 mg BID, Week 5", "value": "17.22 (13.36)"}, {"measurement": "UAS7 Post-baseline Mean (SD)", "setting": "400 mg BID, Week 6", "value": "17.02 (12.76)"}, {"measurement": "UAS7 Post-baseline Mean (SD)", "setting": "400 mg BID, Week 7", "value": "15.55 (11.97)"}, {"measurement": "UAS7 Post-baseline Mean (SD)", "setting": "400 mg BID, Week 8", "value": "13.98 (13.06)"}, {"measurement": "UAS7 Post-baseline Mean (SD)", "setting": "400 mg BID, Week 9", "value": "14.64 (14.43)"}, {"measurement": "UAS7 Post-baseline Mean (SD)", "setting": "400 mg BID, Week 10", "value": "15.22 (14.36)"}, {"measurement": "UAS7 Post-baseline Mean (SD)", "setting": "400 mg BID, Week 11", "value": "15.06 (13.80)"}, {"measurement": "UAS7 Post-baseline Mean (SD)", "setting": "400 mg BID, Week 12", "value": "15.61 (13.91)"}, {"measurement": "UAS7 Post-baseline Mean (SD)", "setting": "400 mg QPM, Week 1", "value": "23.81 (8.78)"}]}]}
